Source: ChEMBL document CHEMBL1149878, “Tetramic and tetronic acids: an update on new derivatives and biological aspects” (Bioorg Med Chem, 2008)
≈ marks a conversion by molar mass, not a printed value. Where a SMILES comes first, the peptide text is derived from it. [ ]: non-standard residue; d: D form. The star is where a group is joined. X1 = COC1=CC(=O)N(C(=O)[C@@H](O*)C(C)C)[C@H]1Cc1ccccc1; NMe2Val = CC(C)[C@@H](C(=O)*)N(C)C; NMeV = CN[C@H](C(=O)O)C(C)C

Key:
[1] = Inhibition of Escherichia coli H560 DNA gyrase
[2] = biological target: Glutamate NMDA receptor (Rattus norvegicus) (UniProt P35439+Q00959+Q00960+Q00961+Q62645+Q8VHN2+Q9R1M7); experiment: Antagonist activity at NMDA receptor in rat cortex assessed as inhibition of NMDA-induced depolarization; format: functional, tissue-based
[3] = biological target: Glutamate NMDA receptor; experiment: Displacement of [3H]L689560 from glycine site of rat NMDA receptor; format: protein-complex assay
[4] = Inhibition of HCV NS5B polymerase; design: species or system Hepacivirus hominis
[5] = system: Escherichia coli; experiment: Antimicrobial activity against Escherichia coli; format: functional
[6] = system: Staphylococcus aureus; experiment: Antimicrobial activity against Staphylococcus aureus; format: functional
[7] = Inhibition of Escherichia coli MurB
[8] = biological target: Beta-secretase 1 (Homo sapiens, UniProt P56817); experiment: Inhibition of BACE1 by FRET assay
[9] = system: Enterococcus faecalis; experiment: Growth inhibition of multidrug resistant Enterococcus faecalis; format: functional, organism-based
[10] = system: Staphylococcus aureus; experiment: Growth inhibition of multidrug resistant Staphylococcus aureus; format: functional, organism-based
[11] = system: HeLa; experiment: Growth inhibition of human HeLa cells; format: functional, cell-based
[12] = biological target: M-phase inducer phosphatase 2 (Homo sapiens, UniProt P30305); experiment: Inhibition of cdc25B
[13] = Selectivity for cdc25B over VHR
[14] = system: SK-OV-3; experiment: Cytotoxicity against human SK-OV-3 cells; format: functional, cell-based
[15] = system: HCT-15; experiment: Cytotoxicity against human HCT15 cells; format: functional, cell-based
[16] = system: A549; experiment: Cytotoxicity against human A549 cells; format: functional, cell-based
[17] = system: XF498; experiment: Cytotoxicity against human XF498 cells; format: functional, cell-based
[18] = system: SK-MEL-2; experiment: Cytotoxicity against human SK-Mel-2 cells; format: functional, cell-based
[19] = system: Fusobacterium nucleatum; experiment: Antimicrobial activity against Fusobacterium nucleatum; format: functional
[20] = system: Streptococcus constellatus; experiment: Antimicrobial activity against Streptococcus constellatus; format: functional
[21] = system: Bacteroides sp.; experiment: Antimicrobial activity against Bacteroides melaninogenicus; format: functional
[22] = system: Eubacterium limosum; experiment: Antimicrobial activity against Eubacterium limosum; format: functional
[23] = system: Clostridioides difficile; experiment: Antimicrobial activity against Clostridium difficile; format: functional
[24] = system: Bifidobacterium longum; experiment: Antimicrobial activity against Bifidobacterium longum; format: functional
[25] = system: Bacteroides fragilis; experiment: Antimicrobial activity against Bacteroides fragilis; format: functional
[26] = system: Phocaeicola vulgatus; experiment: Antimicrobial activity against Bacteroides vulgatus; format: functional
[27] = system: Fusobacterium necrophorum; experiment: Antimicrobial activity against Fusobacterium necrophorum; format: functional
[28] = system: Enterococcus; experiment: Growth inhibition of multidrug resistant Enterococcus; format: functional
[29] = Toxicity in rat; format: organism-based; details: in vivo, read-out: LC50 (the source's name)
[30] = system: B16; experiment: Cytotoxicity against mouse B16 cells; format: functional, cell-based
[31] = system: Plasmodium falciparum; experiment: Antiplasmodial activity against Plasmodium falciparum after 72 hrs; format: functional, organism-based
[32] = biological target: Human immunodeficiency virus type 1 integrase (Human immunodeficiency virus 1, UniProt Q7ZJM1); experiment: Inhibition of HIV1 integrase strand transfer activity
[33] = system: A498; experiment: Growth inhibition of human A498 cells; format: functional, cell-based
[34] = system: L929; experiment: Growth inhibition of mouse L929 cells; format: cell-based
[35] = Growth inhibition of human KB3-1 cells; format: functional, cell-based; details: KB 3-1
[36] = system: HL-60; experiment: Growth inhibition of human HL60 cells by MTT assay after 24 hrs; format: functional, cell-based; details: HL-60, 24 h
[37] = system: A549; experiment: Growth inhibition of human A549 cells by MTT assay after 24 hrs; format: functional, cell-based; details: A549, 24 h
[38] = system: P388; experiment: Growth inhibition of mouse P388 cells by MTT assay after 24 hrs; format: functional, cell-based; details: P388, 24 h
[39] = system: Bel-7402; experiment: Growth inhibition of human Bel7402 cells by MTT assay after 24 hrs; format: functional, cell-based; details: Bel-7402, 24 h
[40] = system: Legionella; experiment: Antimicrobial activity against Legionella; format: functional
[41] = system: Streptococcus pyogenes; experiment: Antimicrobial activity against Streptococcus pyogenes 930; format: functional
[42] = system: Streptococcus equinus; experiment: Antimicrobial activity against Streptococcus bovis A5169; format: functional
[43] = system: Enterococcus; experiment: Antimicrobial activity against Enterococcus; format: functional
[44] = system: Staphylococcus aureus; experiment: Antimicrobial activity against methicillin-resistant Staphylococcus aureus F597; format: functional
[45] = system: Enterococcus faecalis; experiment: Antimicrobial activity against Enterococcus faecalis; format: functional

Chain of M-phase inducer phosphatase 2 (P30305 whole entry): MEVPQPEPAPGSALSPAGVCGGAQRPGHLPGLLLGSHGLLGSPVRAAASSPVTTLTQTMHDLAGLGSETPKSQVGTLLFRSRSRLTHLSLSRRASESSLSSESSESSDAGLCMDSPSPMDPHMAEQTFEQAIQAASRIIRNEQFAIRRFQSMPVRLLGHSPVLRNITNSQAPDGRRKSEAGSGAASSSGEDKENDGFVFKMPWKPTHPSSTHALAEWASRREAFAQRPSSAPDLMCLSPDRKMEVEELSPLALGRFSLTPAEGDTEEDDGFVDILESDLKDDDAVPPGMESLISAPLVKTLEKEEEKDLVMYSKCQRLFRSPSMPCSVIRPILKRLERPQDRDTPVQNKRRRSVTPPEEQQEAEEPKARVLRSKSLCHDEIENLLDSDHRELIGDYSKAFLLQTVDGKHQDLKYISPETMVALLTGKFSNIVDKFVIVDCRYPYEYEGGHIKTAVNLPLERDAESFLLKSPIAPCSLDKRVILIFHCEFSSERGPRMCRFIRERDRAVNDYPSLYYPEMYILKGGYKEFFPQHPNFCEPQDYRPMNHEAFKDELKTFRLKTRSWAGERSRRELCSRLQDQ
Chain of Human immunodeficiency virus type 1 integrase (Q7ZJM1 whole entry): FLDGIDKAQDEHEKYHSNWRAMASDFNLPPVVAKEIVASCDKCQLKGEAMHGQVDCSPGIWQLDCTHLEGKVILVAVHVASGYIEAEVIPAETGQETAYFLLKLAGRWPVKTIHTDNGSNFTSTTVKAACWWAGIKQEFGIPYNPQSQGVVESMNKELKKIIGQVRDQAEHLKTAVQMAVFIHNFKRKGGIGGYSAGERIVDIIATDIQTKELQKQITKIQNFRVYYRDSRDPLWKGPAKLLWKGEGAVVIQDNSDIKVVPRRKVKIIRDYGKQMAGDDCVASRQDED
Chain of Beta-secretase 1 (P56817 whole entry): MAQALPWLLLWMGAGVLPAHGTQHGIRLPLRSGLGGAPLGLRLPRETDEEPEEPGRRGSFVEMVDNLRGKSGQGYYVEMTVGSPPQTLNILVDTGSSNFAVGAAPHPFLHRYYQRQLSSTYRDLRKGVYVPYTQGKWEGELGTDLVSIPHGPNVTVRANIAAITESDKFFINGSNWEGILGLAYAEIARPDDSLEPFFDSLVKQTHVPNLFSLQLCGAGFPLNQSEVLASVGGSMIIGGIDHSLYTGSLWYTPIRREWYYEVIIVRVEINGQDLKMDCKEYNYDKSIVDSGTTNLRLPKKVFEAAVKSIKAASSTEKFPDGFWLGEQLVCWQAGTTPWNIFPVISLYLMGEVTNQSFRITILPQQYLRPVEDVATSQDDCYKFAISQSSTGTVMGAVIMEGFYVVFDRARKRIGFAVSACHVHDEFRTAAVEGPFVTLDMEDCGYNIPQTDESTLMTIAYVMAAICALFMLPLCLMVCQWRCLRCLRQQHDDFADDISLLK

CC(/C=C/C(O)=C1\C(=O)CNC1=O)=C\c1ccc2ccccc2c1
IC50 [1]: 3.5 µg/mL (≈ 11 µM)

CC(/C=C/C(=O)C1=C(O)CN(C)C1=O)=C\c1ccc2ccccc2c1
IC50 [1]: 10.3 µg/mL (≈ 30.9 µM)

CC/C=C1\NC(=O)C(c2cccc(Oc3ccccc3)c2)=C1O
Kb [2]: 6.15 µM
IC50 [3]: 0.7 µM

CC(C)(C)CN1C(=O)C(C2=NS(=O)(=O)c3ccccc3N2)=C(O)[C@@H]1C(C)(C)C
IC50 [4]: 0.0017 µM

O=C1O/C(=C\c2cccc3ccccc23)C(O)=C1c1cc(Cl)cc(Cl)c1
MIC [5]: 1 µg/mL (≈ 2.61 µM)
MIC [6]: 1 µg/mL (≈ 2.61 µM)
IC50 [7]: 21 µM
Kd [7]: 0.04 µM

CCC(C)C1NC(=O)C(SCc2cccc(C(F)(F)F)c2)=C1O (stereo unspecified)
IC50 [8]: 60 µM

C[C@@H]1CC[C@@H]2[C@H](C=C[C@@H](C)[C@@]2(C)/C(O)=C2/C(=O)[C@H]([C@H](C)O)N(C)C2=O)C1
IC50 [9]: 20 µg/mL (≈ 55.3 µM)
IC50 [10]: 10 µg/mL (≈ 27.7 µM)
IC90 [11]: 7.1 µg/mL (≈ 19.6 µM)

CCCCCCCCCCCCCCCC(=O)C1=C(O)[C@@H](COC(=O)N=C=NC(=O)OCC)OC1=O
IC50 [12]: 0.4 µM
Selectivity ratio [13]: 30

C=C1C=C(CCC/C(C)=C/C=C/[C@H](C)CC/C=C(/C)CC2OC(=O)C(C)=C2O)C(=O)N1CCC(C)C (stereo partly drawn) [(R)-SARCOTRINE A]
IC50 [14]: 3.4 µg/mL (≈ 6.86 µM)
IC50 [15]: 3.4 µg/mL (≈ 6.86 µM)
IC50 [16]: 3.4 µg/mL (≈ 6.86 µM)
IC50 [17]: 3.4 µg/mL (≈ 6.86 µM)
IC50 [18]: 3.4 µg/mL (≈ 6.86 µM)

C=C1C=C(CCC/C(C)=C/C=C/[C@@H](C)CC/C=C(/C)CC2OC(=O)C(C)=C2O)C(=O)N1CCC(C)C (stereo partly drawn) [(S)-SARCOTRINE A]
IC50 [14]: 3.4 µg/mL (≈ 6.86 µM)
IC50 [15]: 3.4 µg/mL (≈ 6.86 µM)
IC50 [16]: 3.4 µg/mL (≈ 6.86 µM)
IC50 [17]: 3.4 µg/mL (≈ 6.86 µM)
IC50 [18]: 3.4 µg/mL (≈ 6.86 µM)

C=C1OC(=O)/C(=C(\O)CCCCCCCCC)C1=O [AGGLOMERIN A]
MIC [19]: 6.25 µg/mL (≈ 23.5 µM)
MIC [20]: 3.13 µg/mL (≈ 11.8 µM)
MIC [21]: 6.25 µg/mL (≈ 23.5 µM)
MIC [22]: 6.25 µg/mL (≈ 23.5 µM)
MIC [23]: 3.13 µg/mL (≈ 11.8 µM)
MIC [24]: 6.25 µg/mL (≈ 23.5 µM)
MIC [25]: 3.13 µg/mL (≈ 11.8 µM)
MIC [26]: 3.13 µg/mL (≈ 11.8 µM)
MIC [27]: 6.25 µg/mL (≈ 23.5 µM)

C/C=C/C=C/[C@@H]1C(C)=C[C@@H]2C[C@H](C)CC[C@H]2[C@]1(C)/C(O)=C1\C(=O)N[C@@H]([C@H](C)O)C1=O [CONIOSETIN]
MIC [28]: 2.5 µg/mL (≈ 6.05 µM)
MIC [10]: 0.3 µg/mL (≈ 0.725 µM)

CC(=O)C1=C(O)[C@@H]2[C@H]3c4c[nH]c5cccc(c45)C[C@H]3C(C)(C)N2C1=O [CYCLOPIAZONIC ACID]
LD50 [29]: 30 mg/kg

C[C@H]1C=CC2C1C[C@H]1/C=C/CC/C(O)=C3/C(=O)N[C@H](C3=O)[C@@H](O)CCNC(=O)/C=C/C=C\C[C@H]21 (stereo partly specified) [CYLINDRAMIDE]
IC50 [30]: 0.8 µg/mL (≈ 1.71 µM)

COC1=CC(=O)N(C(=O)[C@@H](OC(=O)[C@@H]2CCCN2C(=O)[C@@H]2CCCN2C(=O)[C@H](C(C)C)N(C)C(=O)[C@@H](NC(=O)[C@H](C(C)C)N(C)C)C(C)C)C(C)C)[C@H]1Cc1ccccc1 [DOLASTATIN 15] (NMe2Val-V[NMeV]PP-X1)
IC50 [31]: 0.2 µM

CC1=C[C@@H]2CC[C@@H](O)[C@H](C)[C@@H]2[C@@H](C(=O)C2=C(O)C(O)NC2=O)[C@@H]1C[C@H]1O[C@@]2(CC[C@H](C)[C@@H](c3cc(O)cc(O)c3)O2)[C@@H](C)C[C@@H]1C (stereo partly specified) [INTEGRAMYCIN]
IC50 [32]: 4 µM

CCCCCCCCC(C)CC/C(O)=C1\C(=O)[C@H](C)N(C)C1=O (stereo partly specified) [MELOPHLIN B]
IC50 [33]: < 10 µM
IC50 [34]: < 10 µM
IC50 [11]: < 10 µM
IC50 [35]: < 10 µM

CCCCCCCC(C)CCC/C(O)=C1\C(=O)C(C)N(C)C1=O (stereo unspecified) [MELOPHLIN C]
IC50 [33]: < 10 µM
IC50 [34]: < 10 µM
IC50 [11]: < 10 µM
IC50 [35]: < 10 µM

CC(C)CCCCCCCCCCC/C(O)=C1\C(=O)C(C)N(C)C1=O (stereo unspecified) [MELOPHLIN Q]
IC50 [33]: 3.4 µM

CCC(C)CCCCCCCCCC/C(O)=C1\C(=O)C(C)N(C)C1=O (stereo unspecified) [MELOPHLIN R]
IC50 [33]: < 10 µM
IC50 [34]: < 10 µM
IC50 [11]: < 10 µM
IC50 [35]: < 10 µM

CCn1cc(C(=O)O)c(=O)c2cc(F)c(N3CCNCC3)cc21 [NORFLOXACIN]
IC50 [1]: 1 µg/mL (≈ 3.13 µM)

CCCCCCC(C)/C(O)=C1\C(=O)[C@H]([C@H](C)O)N(C)C1=O (stereo partly specified) [PENICILLENOL A1]
IC50 [36]: 0.76 µM

CCCCCCC(C)/C(O)=C1\C(=O)[C@@H]([C@@H](C)O)N(C)C1=O (stereo partly specified) [PENICILLENOL A2]
IC50 [37]: > 100 µM
IC50 [38]: > 100 µM
IC50 [39]: > 100 µM

C/C=C1/C(=O)/C(=C(/O)C(C)CCCCCC)C(=O)N1C (stereo unspecified) [PENICILLENOL B1]
IC50 [36]: 3.2 µM
IC50 [37]: > 100 µM
IC50 [38]: > 100 µM
IC50 [39]: > 100 µM

C/C=C1\C(=O)/C(=C(/O)C(C)CCCCCC)C(=O)N1C (stereo unspecified) [PENICILLENOL B2]
IC50 [37]: > 100 µM
IC50 [38]: > 100 µM
IC50 [39]: > 100 µM

C/C=C/CCCC(C)/C(O)=C1\C(=O)[C@H]([C@H](C)O)N(C)C1=O (stereo partly specified) [PENICILLENOL C1]
IC50 [36]: > 100 µM
IC50 [37]: > 100 µM
IC50 [38]: > 100 µM
IC50 [39]: > 100 µM

C/C=C/CCCC(C)/C(O)=C1\C(=O)[C@@H]([C@@H](C)O)N(C)C1=O (stereo partly specified) [PENICILLENOL C2]
IC50 [36]: > 100 µM
IC50 [37]: > 100 µM
IC50 [38]: > 100 µM
IC50 [39]: > 100 µM

CC(/C=C/C(O)=C1/C(=O)CNC1=O)=C\[C@@H](C)[C@H]1O[C@@]2(C)O[C@@H](C=C[C@@]23CO3)[C@H]1C [TIRANDALYDIGIN]
MIC [40]: > 32 µg/mL
MIC [41]: 3.1 µg/mL (≈ 7.72 µM)
MIC [42]: 12.5 µg/mL (≈ 31.1 µM)
MIC [25]: 0.5 µg/mL (≈ 1.25 µM)
MIC [43]: > 16 µg/mL

CC1=C[C@H]2[C@H](O)CC[C@@](C)(/C(O)=C3/C(=O)CNC3=O)[C@H]2C[C@@H]1CCC(C)C(O)/C(C)=C/CC(O)/C=C/C(C)C(O)/C=C/CC(O)/C=C/CC(O)CC1CCCN1C(=N)N (stereo partly specified) [TPU-0037 A]
MIC [44]: 3.13 µg/mL (≈ 3.79 µM)

C/C(=C\CC(O)CC(O)CCC(C)C(O)C(C)C(O)CCCC(O)C(C)C(O)/C(C)=C/C(C)C(=O)/C(C)=C/C(O)C(O)CC(O)CC(OC1OC(C)C(O)C(N)C1O)C(C)CCC(O)CC(O)CCC(C)C(O)C(C)C(O)C(C)C)C(=O)C1=C(O)/C(=C/C(C)C)N(C)C1=O (stereo unspecified) [VANCORESMYCIN]
MIC [45]: 0.3 µg/mL (≈ 0.223 µM)
MIC [6]: < 0.04 µg/mL
